Measured values taken from patent US20210228771A1, “BIOLOGIC MATERIAL COMPRISING A CROSSLINKED STRUCTURAL PROTEIN AND MACROPHAGES SEEDED ON THE CROSSLINKED STRUCTURAL PROTEIN” (CASE WESTERN RESERVE UNIVERSITY, priority 2020, published 2021).

Legend:
M0 macrophages = assay: Western blot (arginase-1) of M0 macrophages with direct addition of genipin to culture medium; format: cell-based, rat; settings: for arginase-1 expression in genipin treated M0 (M0-GE): 12.5 μg/ml genipin added directly to culture medium, versus cytokine induced M2
Excerpt: 7b. […] A second set of experiments included the following groups: 1) Tissue culture plate with M0-polarization medium, 2) Tissue culture plate with M1-polarization medium, 3) Tissue culture plate with M2-polarization medium, 4) Tissue culture plate with M0-polarization medium with direct addition of genipin, 5) M0 subtype cells seeded on uncrosslinked collagen threads, 6) M0 subtype cells seeded on genipin crosslinked collagen threads. In this design, Groups 1-3 constitute the positive controls. […] Comparison of group 5 with group 6 determines how genipin crosslinking of collagen affect the polarization status of M0 subtype. For group 4, genipin (Wako Pure Chemical Industries, catalog #078-03021, Richmond, Va.) in 0.1% dimethyl sulfoxide (DMSO, Sigma-Aldrich, USA) (12.5 μg/ml, genipin/DMSO) was directly added to the culture medium. […] Total cell lysate was prepared using RIPA lysis buffer (#50195822), phenylmethylsulfonylfluoride (PMSF) (#NC0417414) and protease/phosphatase inhibitor (#50193743) purchased from Cell Signaling Technology. The protein concentration in the cell lysate was estimated using DC protein assay (BioRad) and 25 μg protein was resolved using 4-20% Mini-PROTEAN gels (#4561094, BioRad) and transferred to a nitrocellulose membrane (#1620213, BioRad). The membrane was blocked in 5% non-fat dry milk/1% Tween 20 for 2 hr at room temperature. They were incubated with primary antibodies anti-Arg1 for M2 (sc-271430), anti-iNOS for M1 (sc-7271), pSTAT6 (#9361S), PPAR-gamma (sc-7273) and anti-GAPDH (sc-365062) as the housekeeping protein overnight at 4° C. Following day, the blots were washed in TBST and incubated with anti-mouse secondary antibody (sc-516102) conjugated with horseradish peroxidase detected by ECL-chemiluminescence, then underwent autoradiography using BioBlue-Lite™ film (Alkali Scientific, FL). Quantitative analysis of the protein bands was performed using the Image J.

pSTAT6 and PPAR-γ = assay: Western blot of signaling pathways in genipin induced M2 polarization; format: cell-based, rat; settings: genipin treated M0 (M0-GE)
Experimental: 7c. Investigation of signaling pathways involved in M2 polarization by genipin: A third set of experiments included the following groups: 1) Tissue culture plate with M2-polarization medium, 2) Tissue culture plate with M0-polarization medium with direct addition of genipin, 3) Tissue culture plate with M0-polarization medium. In this design, Groups 1 and 3 represent the positive and negative controls. Total cell lysate was prepared using RIPA lysis buffer (#50195822), phenylmethylsulfonylfluoride (PMSF) (#NC0417414) and protease/phosphatase inhibitor (#50193743) purchased from Cell Signaling Technology. The protein concentration in the cell lysate was estimated using DC protein assay (BioRad) and 25 μg protein was resolved using 4-20% Mini-PROTEAN gels (#4561094, BioRad) and transferred to a nitrocellulose membrane (#1620213, BioRad). The membrane was blocked in 5% non-fat dry milk/1% Tween 20 for 2 hr at room temperature. […] Following day, the blots were washed in TBST and incubated with anti-mouse secondary antibody (sc-516102) conjugated with horseradish peroxidase detected by ECL-chemiluminescence, then underwent autoradiography using BioBlue-Lite™ film (Alkali Scientific, FL). Quantitative analysis of the protein bands was performed using the Image J.

[1] = 12.5 μg/ml; cited from earlier work
[2] = system: LPS-stimulated RAW 264.7 murine macrophages cell line; settings: cited from earlier work
human endothelial cells = settings: cited from earlier work
[3] = system: LPS-stimulated microglia cells derived from rat brain; settings: cited from earlier work

COC(=O)C1=CO[C@@H](O)[C@@H]2C(CO)=CC[C@H]12 [genipin]
arginase-1 expression in genipin treated M0 (M0-GE) (M0 macrophages): higher than for the M2 subtype induced with standard cytokines | arginase-1 expression in genipin treated M0 (M0-GE) (M0 macrophages; listed as soluble genipin): moderately greater than a potent cytokine | increase in Arg1 expression, soluble genipin compared to genipin presented via crosslinked collagen (M0 macrophages; M0GE vs. M0GES): approximately 3 fold | pSTAT6 expression (pSTAT6 and PPAR-γ): significantly higher compared to M2 polarization induced by IL-4 | toxicity of genipin concentration [1]: subtoxic | TNF-α and IL-6 (pro-inflammatory markers) [2]: suppress | TNF-α-induced VCAM-1 expression (human endothelial cells): suppress | IL-10 and TNF-α production [3]: leads to IL-10 and TNF-α production
